Patent US10750743B2, “Pyridazinone herbicides” (E.I. DU PONT DE NEMOURS AND COMPANY, priority 2015, dated 2020)

What was measured:
Type in all cases: in vivo
[1] = tested on: ryegrass, It. (Italian ryegrass, Lolium multiflorum); experiment: Test A preemergence, directed soil spray, visual injury rating; conditions: 0 is no effect, 100 is complete control
Summary of the method: (§1)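 Compounds in a surfactant-containing solvent were applied as a directed soil spray preemergence, or postemergence to plants 2-10 cm tall at the one- to two-leaf stage, in loam-sand blend. After about 10 d in the greenhouse, injury was rated visually against untreated controls on a 0-100 scale (100 = complete control).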

kochia (Kochia scoparia) [2] = experiment: as above; conditions: 0 is no effect, 100 is complete control
Summary of the method: as §1

[3] = tested on: barnyardgrass (Echinochloa crus-galli); experiment: as above; conditions: 0 is no effect, 100 is complete control
Summary of the method: as §1

[4] = tested on: foxtail, giant (giant foxtail, Setaria faberii); experiment: as above; conditions: 0 is no effect, 100 is complete control
Summary of the method: as §1

[5] = tested on: ragweed (common ragweed, Ambrosia elatior); experiment: as above; conditions: 0 is no effect, 100 is complete control
Summary of the method: as §1

[6] = tested on: pigweed (Amaranthus retroflexus); experiment: as above; conditions: 0 is no effect, 100 is complete control
Summary of the method: as §1

[7] = tested on: ducksalad (Heteranthera limosa); experiment: Test B flooded paddy test, visual rating; conditions: Flood, 250 g ai/ha, applied to paddy water, rated after 13 to 15 d
Summary of the method: (§2)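 Plants grown to the 2-leaf stage. At treatment, pots were flooded to 3 cm above the soil, compound was applied directly to the paddy water, and that depth was held throughout. After 13 to 15 d in the greenhouse, response was rated visually against controls on a 0 (no effect) to 100 (complete control) scale.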

[8] = tested on: barnyardgrass (Echinochloa crus-galli); experiment: Test B flooded paddy test, visual rating; conditions: Flood, 250 g ai/ha, applied to paddy water, rated after 13 to 15 d
Summary of the method: as §2

rice (Oryza sativa) = experiment: Test B flooded paddy test, visual rating; conditions: Flood, 250 g ai/ha, applied to paddy water, rated after 13 to 15 d
Summary of the method: as §2

[9] = tested on: sedge, umbrella (small-flower umbrella sedge, Cyperus difformis); experiment: Test B flooded paddy test, visual rating; conditions: Flood, 250 g ai/ha, applied to paddy water, rated after 13 to 15 d
Summary of the method: as §2

[10] = tested on: blackgrass (Alopecurus myosuroides); experiment: Test A postemergence application, visual injury rating; conditions: 0 to 100 scale, 0 no effect, 100 complete control
Summary of the method: as §1

[11] = tested on: wheat (Triticum aestivum); experiment: as above; conditions: 0 to 100 scale, 0 no effect, 100 complete control
Summary of the method: as §1

[12] = tested on: ryegrass, It. (Italian ryegrass, Lolium multiflorum); experiment: as above; conditions: 0 to 100 scale, 0 no effect, 100 complete control
Summary of the method: as §1

corn (Zea mays) = experiment: as above; conditions: 0 to 100 scale, 0 no effect, 100 complete control
Summary of the method: as §1

kochia (Kochia scoparia) [13] = experiment: as above; conditions: 0 to 100 scale, 0 no effect, 100 complete control
Summary of the method: as §1

[14] = tested on: barnyardgrass (Echinochloa crus-galli); experiment: as above; conditions: 0 to 100 scale, 0 no effect, 100 complete control
Summary of the method: as §1

[15] = tested on: foxtail, giant (giant foxtail, Setaria faberii); experiment: as above; conditions: 0 to 100 scale, 0 no effect, 100 complete control
Summary of the method: as §1

[16] = tested on: galium (catchweed bedstraw, Galium aparine); experiment: as above; conditions: 0 to 100 scale, 0 no effect, 100 complete control
Summary of the method: as §1

[17] = tested on: ragweed (common ragweed, Ambrosia elatior); experiment: as above; conditions: 0 to 100 scale, 0 no effect, 100 complete control
Summary of the method: as §1

[18] = tested on: pigweed (Amaranthus retroflexus); experiment: as above; conditions: 0 to 100 scale, 0 no effect, 100 complete control
Summary of the method: as §1

SMILES | Plant response rating (0 to 100 scale), Ryegrass, It. ([1]; 125 g ai/ha) | Plant response rating (0 to 100 scale), Kochia (kochia (Kochia scoparia) [2]; 125 g ai/ha) | Plant response rating (0 to 100 scale), Barnyardgrass ([3]; 125 g ai/ha) | Plant response rating (0 to 100 scale), Foxtail, Giant ([4]; 125 g ai/ha) | Plant response rating (0 to 100 scale), Ragweed ([5]; 125 g ai/ha) | Plant response rating (0 to 100 scale), Pigweed ([6]; 125 g ai/ha) | Ducksalad plant response rating (0 to 100 scale, 0 is no effect, 100 is complete control) [7] | Barnyardgrass plant response rating (0 to 100 scale, 0 is no effect, 100 is complete control) [8] | Rice plant response rating (0 to 100 scale, 0 is no effect, 100 is complete control) (rice (Oryza sativa)) | Sedge, Umbrella plant response rating (0 to 100 scale, 0 is no effect, 100 is complete control) [9] | Blackgrass plant response rating ([10]; 125 g ai/ha) | Wheat plant response rating ([11]; 125 g ai/ha) | Ryegrass, It. plant response rating ([12]; 125 g ai/ha) | Corn plant response rating (corn (Zea mays); 125 g ai/ha) | Kochia plant response rating (kochia (Kochia scoparia) [13]; 125 g ai/ha) | Barnyardgrass plant response rating ([14]; 125 g ai/ha) | Foxtail, Giant plant response rating ([15]; 125 g ai/ha) | Galium plant response rating ([16]; 125 g ai/ha) | Ragweed plant response rating ([17]; 125 g ai/ha) | Pigweed plant response rating ([18]; 125 g ai/ha) | also measured
CCC(=O)Oc1c(C)nn(C)c(=O)c1-c1ccc(Cl)c2cc(C)oc12 [Compound 41] | 100 | 0 | 70 | 80 | 70 | 90 | 20 | 20 | 0 | 75 | 50 | 0 | 100 | 20 | 0 | 50 | 60 | 100 | 80 | 70 | Plant response rating (0 to 100 scale), Ryegrass, It. ([1]; 31 g ai/ha): 90; Plant response rating (0 to 100 scale), Kochia (kochia (Kochia scoparia) [2]; 31 g ai/ha): 0; Plant response rating (0 to 100 scale), Barnyardgrass ([3]; 31 g ai/ha): 0; Plant response rating (0 to 100 scale), Foxtail, Giant ([4]; 31 g ai/ha): 20; Plant response rating (0 to 100 scale), Ragweed ([5]; 31 g ai/ha): 0; Plant response rating (0 to 100 scale), Pigweed ([6]; 31 g ai/ha): 0; Blackgrass plant response rating ([10]; 31 g ai/ha): 20; Wheat plant response rating ([11]; 31 g ai/ha): 0; Ryegrass, It. plant response rating ([12]; 31 g ai/ha): 90; Corn plant response rating (corn (Zea mays); 31 g ai/ha): 0; Kochia plant response rating (kochia (Kochia scoparia) [13]; 31 g ai/ha): 0; Barnyardgrass plant response rating ([14]; 31 g ai/ha): 20; Foxtail, Giant plant response rating ([15]; 31 g ai/ha): 20; Galium plant response rating ([16]; 31 g ai/ha): 90; Ragweed plant response rating ([17]; 31 g ai/ha): 80; Pigweed plant response rating ([18]; 31 g ai/ha): 40
Cc1nc2c(-c3c(O)c(C)nn(C)c3=O)cccc2s1 [Compound 27] | 30 | 0 | 0 | 0 | 20 | 0 | 0 | 0 | 0 | 0 | 0 | 0 | 20 | 0 | 0 | 0 | 20 | 0 | 0 | 0 | Plant response rating (0 to 100 scale), Ryegrass, It. ([1]; 500 g ai/ha): 40; Plant response rating (0 to 100 scale), Kochia (kochia (Kochia scoparia) [2]; 500 g ai/ha): 0; Plant response rating (0 to 100 scale), Barnyardgrass ([3]; 500 g ai/ha): 0; Plant response rating (0 to 100 scale), Foxtail, Giant ([4]; 500 g ai/ha): 50; Plant response rating (0 to 100 scale), Ragweed ([5]; 500 g ai/ha): 20; Plant response rating (0 to 100 scale), Pigweed ([6]; 500 g ai/ha): 0; Blackgrass plant response rating ([10]; 500 g ai/ha): 30; Wheat plant response rating ([11]; 500 g ai/ha): 0; Ryegrass, It. plant response rating ([12]; 500 g ai/ha): 40; Corn plant response rating (corn (Zea mays); 500 g ai/ha): 0; Kochia plant response rating (kochia (Kochia scoparia) [13]; 500 g ai/ha): 0; Barnyardgrass plant response rating ([14]; 500 g ai/ha): 20; Foxtail, Giant plant response rating ([15]; 500 g ai/ha): 40; Galium plant response rating ([16]; 500 g ai/ha): 60; Ragweed plant response rating ([17]; 500 g ai/ha): 30; Pigweed plant response rating ([18]; 500 g ai/ha): 0
CCC(=O)Oc1c(C)nn(C)c(=O)c1-c1ccc(Cl)c2ccsc12 [Compound 36] | 90 | 0 | 0 | 0 | 0 | 90 | 0 | 0 | 0 | 80 | 0 | 0 | 80 | 0 | 30 | 10 | 0 | 100 | 0 | 30 | Plant response rating (0 to 100 scale), Ryegrass, It. ([1]; 31 g ai/ha): 20; Plant response rating (0 to 100 scale), Kochia (kochia (Kochia scoparia) [2]; 31 g ai/ha): 0; Plant response rating (0 to 100 scale), Barnyardgrass ([3]; 31 g ai/ha): 0; Plant response rating (0 to 100 scale), Foxtail, Giant ([4]; 31 g ai/ha): 0; Plant response rating (0 to 100 scale), Ragweed ([5]; 31 g ai/ha): 0; Plant response rating (0 to 100 scale), Pigweed ([6]; 31 g ai/ha): 0; Blackgrass plant response rating ([10]; 31 g ai/ha): 0; Wheat plant response rating ([11]; 31 g ai/ha): 0; Ryegrass, It. plant response rating ([12]; 31 g ai/ha): 30; Corn plant response rating (corn (Zea mays); 31 g ai/ha): 0; Kochia plant response rating (kochia (Kochia scoparia) [13]; 31 g ai/ha): 20; Barnyardgrass plant response rating ([14]; 31 g ai/ha): 0; Foxtail, Giant plant response rating ([15]; 31 g ai/ha): 0; Galium plant response rating ([16]; 31 g ai/ha): 90; Ragweed plant response rating ([17]; 31 g ai/ha): 0; Pigweed plant response rating ([18]; 31 g ai/ha): 0
